Results from article PMC11071649, “Synthesis and Selective Anticancer Activity Evaluation of 2-phenylacrylonitrile Derivatives as Tubulin Inhibitors” (Current Medicinal Chemistry, 2024).

How the values were obtained:
Format in all cases: cell-based, human
HepG2 hepatoma cell = assay: MTT anti-proliferative assay, HepG2; settings: MTT, 48 h; read-out: IC50 HepG-2
Procedure, shortened: (§1)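 Anti-proliferative effect is measured with the MTT assay, which reports inhibition of net cell growth. Cells come from ATCC, are maintained in DMEM with FBS and are seeded into 96-well plates before treatment.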

L-02 normal liver cell = assay: MTT assay, L-02 normal cells; settings: 48 h
Procedure, shortened: as §1

[1] = system: MCF-10A normal breast cell; assay: MTT assay, MCF-10A normal cells; settings: 48 h
Procedure, shortened: as §1

[2] = system: BEL-7402 liver cancer cell; assay: MTT anti-proliferative assay, BEL-7402; settings: MTT, 48 h
Procedure, shortened: as §1

MCF-7 breast cancer cell = assay: MTT anti-proliferative assay, MCF-7; settings: MTT, 48 h
Procedure, shortened: as §1

[3] = system: Raji B lymphoblastoid cell; assay: MTT anti-proliferative assay, Raji; settings: MTT, 48 h; read-out: IC50 Raji
Procedure, shortened: as §1

[4] = system: diffuse large B-cell lymphoma SU-DHL-10 cell; assay: MTT anti-proliferative assay, SU-DHL-10; settings: for IC50: MTT, 48 h, read-out: IC50 SU-DHL-10
Procedure, shortened: as §1

AGS gastric cancer cell = assay: MTT anti-proliferative assay, AGS; settings: for IC50: MTT, 48 h
Procedure, shortened: as §1

[5] = system: MGC-803 late stage differentiation gastric cancer cell; assay: MTT anti-proliferative assay, MGC-803; settings: MTT, 48 h
Procedure, shortened: as §1

[6] = system: HeLa cervical cancer cell; assay: MTT anti-proliferative assay, HeLa; settings: MTT, 48 h
Procedure, shortened: as §1

[7] = system: HCT116 colectal cancer cell; assay: MTT anti-proliferative assay, HCT116; settings: MTT, 48 h; read-out: IC50 HCT-116
Procedure, shortened: as §1

A549 lung cancer cell = assay: MTT anti-proliferative assay, A549; settings: for IC50: MTT, 48 h
Procedure, shortened: as §1

[8] = system: SGC-7901 early differentiation gastric cancer cell; assay: MTT anti-proliferative assay, SGC-7901; settings: MTT, 48 h
Procedure, shortened: as §1

SMILES | IC50 (HepG2 hepatoma cell) [µM] | IC50 (L-02 normal liver cell) [µM] | IC50 [1] [µM] | IC50 [2] [µM] | IC50 (MCF-7 breast cancer cell) [µM] | IC50 [3] [µM] | IC50 [4] [µM] | IC50 (AGS gastric cancer cell) [µM] | IC50 [5] [µM] | IC50 [6] [µM] | IC50 [7] [µM] | IC50 (A549 lung cancer cell) [µM] | IC50 [8] [µM] | SI (selectivity index), IC50 (L-02)/IC50 (SU-DHL-10) [4] | SI (selectivity index), IC50 (L-02)/IC50 (AGS) (AGS gastric cancer cell) | SI (selectivity index), IC50 (L-02)/IC50 (A549) (A549 lung cancer cell)
N#C/C(=C\c1ccccc1F)c1ccc(C(F)(F)F)cc1 [Compound 1f2g] | > 100 | > 100 | > 100 | > 100 | > 100 | > 100 | > 100 | > 100 | > 100 | > 100 | > 100 | > 100 | > 100 |  |  | 
N#C/C(=C\c1cccc(F)c1)c1ccc(C(F)(F)F)cc1 [Compound 1f2h] | > 100 | > 100 | > 100 | > 100 | > 100 | > 100 | 58.4 ± 9 | > 100 | > 100 | > 100 | > 100 | > 100 | > 100 | > 1.7 |  | 
N#C/C(=C\c1ccccc1Br)c1ccc(C(F)(F)F)cc1 [Compound 1f2i] | > 100 | > 100 | > 100 | > 100 | > 100 | > 100 | > 100 | 42 ± 11.7 | > 100 | > 100 | > 100 | > 100 | > 100 |  | > 2.3 | 
N#C/C(=C\c1c(F)cccc1Cl)c1ccc(C(F)(F)F)cc1 [Compound 1f2j] | > 100 | > 100 | > 100 | > 100 | > 100 | > 100 | > 100 | > 100 | > 100 | > 100 | > 100 | > 100 | > 100 |  |  | 
N#C/C(=C\c1ccc(C(F)(F)F)cc1)c1ccc(C(F)(F)F)cc1 [Compound 1f2k] | > 100 | > 100 | > 100 | > 100 | > 100 | 77.4 ± 13.6 | > 100 | 53.2 ± 13.2 | > 100 | > 100 | > 100 | 47.8 ± 4 | > 100 |  | > 1.8 | > 2.0
